From patent publication US12569437B2, “Disease-site-specific liposomal formulation” (Osaka University, priority 2017, dated 2026)
Marks after values point to notes of the source that are not given here.

Assays:
[1] = tested on: rat monocrotaline (MCT)-induced severe heart failure (pulmonary hypertension) model; test: Survival rate in rat monocrotaline-induced pulmonary hypertension model; type: in vivo; conditions: 42 days after MCT
Source text: The produced Formulation 21 (ONO-1301Lipo formulation) as a test substance was intermittently administered intravenously once weekly to a rat monocrotaline (MCT)-induced severe heart failure (pulmonary hypertension) model from day 7 of the MCT administration, and the survival rate was compared with a group in which compound (A) (ONO-1301) was repeatedly orally administered; a group in which compound (A) was intermittently administered intravenously once weekly; and, as a positive control, a group in which an ET-1 antagonist (bosentan) was orally administered. In the control group, physiological saline (vehicle) was administered once weekly by intravenous administration.
For animals, Slc: Wistar male rats, 5 weeks old at the start of the test, and 66.4 to 90.8 g at arrival (Japan SLC, Inc.) were used. Monocrotaline (hereinafter referred to as “MCT”), lot No.: SLBG1999V (Sigma-Aldrich Corporation), was administered once subcutaneously at the back of the rats at a dose of 60 mg/kg. Six days after the MCT administration, the animals were divided into groups according to the weight stratification assignment method (Table 19).

[2] = tested on: spontaneous dilated cardiomyopathy (J2N-k) hamster model; test: Left ventricular wall thickness and area in short-axis sections of removed heart; type: in vivo; conditions: week 8; for Left ventricle wall thickness (mm) Anterior / Left ventricle wall thickness (mm) Lateral / Left ventricle wall thickness (mm) Posterior / Left ventricle wall thickness (mm) Septum: middle section
Procedure: (§1) Dissection was performed as follows. After all of the blood was collected from the abdominal aorta, and the hamsters were euthanized under isoflurane anesthesia, the heart and lungs were removed and weighed. After the weights thereof were measured, the removed parts, including the left and right ventricles, were divided into three parts; i.e., apical, middle, and basal parts, at intervals of about 2 mm along the short axis.
When removed, the heart, including the left and right ventricles, was divided into three parts; i.e., apical, middle, and basal parts, at intervals of about 2 mm along the short axis. Among them, one section of the middle part was photographed, and the wall thickness at the anterior, lateral, posterior, and septum parts, and the left ventricular area were measured using image-editing software. For the wall thickness of the left ventricle, image-editing software was used, the number of pixels in the scale area of 1 mm^2 on the photograph was obtained, and the outer diameter and inner diameter of the entire left ventricle wall were traced to obtain each number of pixels to thus calculate the left ventricular area by ((the number of pixels of the outer diameter−the number of pixels of the inner diameter)/1 mm^2). Thereafter, the wall thickness of each portion was measured.
The section was divided into three parts; i.e., apical, middle, and basal areas, at intervals of about 2 mm. Thereafter, using one section on the middle side, the wall thickness at the anterior, lateral, posterior, and septum parts, and the left ventricular area were measured. For the wall thickness of the left ventricle, image-editing software was used, the number of pixels in the scale area of 1 mm^2 on the photograph was obtained, and the outer diameter and inner diameter of the entire left ventricle wall were traced to obtain each number of pixels to thus calculate the left ventricular wall area by ((the number of pixels of the outer diameter−the number of pixels of the inner diameter)/1 mm^2). Thereafter, the wall thickness of each portion was measured.

[3] = Body weight and heart and lung weights in J2N-k hamsters; type: in vivo, hamster; conditions: for Body weight (g) at dissection: week 8
Procedure: as §1
Tables 26 and 27 show the body weight change at the time of grouping and at the time of dissection, and the weights of heart and lung at the time of dissection.

[4] = tested on: rat model of ischemia by complete coronary artery ligation; test: Echocardiography (EF %, % FS) in rat model of ischemia by complete coronary artery ligation; type: in vivo
Procedure: An improvement in the cardiac function against ischemic heart disease and an effect of preventing death from heart failure by intermittent intravenous administration of Formulation 25 (ONO-1301Lipo) or compound (A) (ONO-1301) were analyzed by using the left ventricular ejection fraction (hereinafter referred to as “EF %”), left ventricular fractional shortening (hereinafter referred to as “% FS”), and histological evaluation, based on echocardiography, as indices.
Male Sprague-Dawley rats (CLEA Japan, Inc., 6 weeks old when arrived) were anesthetized with a liquid mixture of 0.5 mg/kg of midazolam (Dormicum Injection 10 mg, Astellas Pharma Inc.) and 2 mg/kg of xylazine (Celactal 2% injection, Bayer Japan Ltd.). Thereafter, the animal tail veins were secured, and Propofol (1% Diprivan Injection; AstraZeneca K.K.) was continuously infused at 6 to 10 mg/kg/hr with a syringe pump (Terufusion TE-3310N; Terumo Corporation) to maintain deep anesthesia. Thereafter, a tracheal cannula (a cut-down catheter with an outside diameter of 2.0 mm, produced by JMS Co., Ltd.) was inserted and indwelled, and a respirator (for small animals; Shinano Seisakusho) was connected to maintain breathing at a stroke volume of 1 mL/100 g/stroke (±1 mL) and a stroke rate of 70 times/min (±10 times). Thereafter, the animals were fixed in a recumbent position from a dorsal fixed position so that the left chest faced upward, and the epidermis and muscle layer between the third to fourth or fourth to fifth ribs were incised with a surgical knife. After confirming that the knife reached the thoracic cavity, the intercostal space was widened with a rib spreader, and a state in which the anterior descending branch (hereinafter referred to as “LAD”) from the left atrial appendage was directly visible at the front was secured.
Thereafter, the translucent thin pericardium was removed with tweezers to expose the myocardium. Thereafter, the LAD located at the margin of the left atrial appendage was pierced and secured with a nylon thread with a 6-0 or 7-0 needle at a depth of 2 to 3 mm using a microneedle holder, and the LAD was completely ligated. Thereafter, the muscle layer and epidermis were sutured and closed with a 4-0 or 5-0 nylon thread. After the chest was closed, 50 mg of cefamedin was subcutaneously administered to the treatment site, and the treatment was terminated.
Echocardiography was performed to confirm the cardiac function improving effect of the test substances using the left ventricular ejection fraction (hereinafter referred to as “EF %”) as an index.
The test was performed 23 hours after the preparation of the model (test for grouping), the animals whose EF % value decreased by 25% or more of that of normal animals were selected, grouping was performed, and a solution for administration of the test substances was administered by tail vein intravenous administration 24 hours after the preparation of the model. Thereafter, echocardiography was performed 7 and 14 days after the test substance administration.

[5] = Body weight and heart weight in rat myocardial ischemia model; type: in vivo
Procedure: Dissection was performed after the completion of the echocardiography at day 14 after the administration of the test substance. For dissection, all of the blood was collected from the abdominal aorta, and the rats were euthanized under isoflurane anesthesia; thereafter, the heart was removed and weighed. After measuring the heart weight, the infarct area, including the left and right ventricles, was divided into three parts along the short axis.

[6] = 3.0 mg/kg intravenous once/2 weeks
[7] = 3.0 mg/kg single i.v. 24 hours after infarction, day 7
[8] = 3.0 mg/kg single i.v. 24 hours after infarction, day 14
[9] = group 3.0 mg/kg single i.v., 23 hours after LAD ligation, before administration

In the case of `O=C(O)COc1cccc2c1CCC=C2CCO/N=C(\c1ccccc1)c1cccnc1` [Compound (A), ({5-[2-({[(1E)-phenyl(pyridin-3-yl)methylene]amino}oxy)ethyl]-7,8-dihydronaphthalen-1-yl}oxy)acetic acid], the “Survival rate (%)” value ([1]; intravenous 1 mg/kg/week from day 7) is reported as 20%, the “Survival rate (%)” value ([1]; oral 3 mg/kg × twice/day from day 7) is reported as 50* % and the “Left ventricular area (Middle part) (mm^2)” value ([2]; 3.0 mg/kg i.v. once/2 weeks) is reported as 23.9 ± 4.5 mm^2. The “Left ventricle wall thickness (mm) Anterior” value [2, 6] was 1.1 ± 0.6 mm, the “Left ventricle wall thickness (mm) Lateral” value [2, 6] was 1.2 ± 0.3 mm and the “Left ventricle wall thickness (mm) Posterior” value [2, 6] was 1.2 ± 0.2 mm. The “Left ventricle wall thickness (mm) Septum” value [2, 6] was 1.0 ± 0.3 mm, the “Left ventricle wall thickness (mm) Anterior” value ([2]; 3.0 mg/kg p.o. twice/day) was 1.4 ± 0.5 mm and the “Left ventricle wall thickness (mm) Lateral” value ([2]; 3.0 mg/kg p.o. twice/day) was 1.5 ± 0.2 mm. For the same molecule, the “Left ventricle wall thickness (mm) Posterior” value ([2]; 3.0 mg/kg p.o. twice/day) was 1.2 ± 0.4 mm, the “Left ventricle wall thickness (mm) Septum” value ([2]; 3.0 mg/kg p.o. twice/day) was 1.5 ± 0.3 mm and the “Left ventricular area (Middle part) (mm^2)” value ([2]; 3.0 mg/kg p.o. twice/day) was 26.4 ± 4.3 mm^2. The “Body weight (g) at dissection” value ([3]; 3.0 mg/kg i.v. once/2 weeks) was 144.4 ± 13.3 g, the “Body weight (g) at dissection” value ([3]; 3.0 mg/kg p.o. twice/day) was 128.6 ± 3.0 g and the “Body weight (g) Before drug administration” value ([3]; group 3.0 mg/kg i.v. once/2 weeks) was 128.7 ± 10.4 g. The “Body weight (g) Before drug administration” value ([3]; group 3.0 mg/kg p.o. twice/day) was 118.8 ± 9.6 g, the “% FS 1 W” value [4, 7] was 25.4 ± 5.6% and the “EF % 1 W” value [4, 7] was 54.6 ± 8.8%. For the same molecule, the “% FS 2 W” value [4, 8] was 24.5 ± 4.4%, the “EF % 2 W” value [4, 8] was 53.2 ± 7.1% and the “% FS Pre” value [4, 9] was 26.5 ± 3.7 %. The “EF % Pre” value [4, 9] was 56.7 ± 5.5 %, the “Body weight (g) At dissection” value ([5]; 3.0 mg/kg single i.v., day 14) was 406.7 ± 37.4 g and the “Body weight (g) Before drug administration” value ([5]; group 3.0 mg/kg single i.v.) was 325.1 ± 22.3 g. For the same molecule, the “Body weight (g) Before preparation of AMI” value ([5]; group 3.0 mg/kg single i.v.) was 339.7 ± 13.6 g.
